In assay [1] the target is T1, human serum albumin (HSA) (Homo sapiens, UniProt P02768).
T1 construct: gene ALB; commercial, essentially fatty acid free, full-length mature monomer of 585 residues, dialyzed, used without further purification
Briefly: isothermal titration calorimetry, two-site sequential model. The conditions noted are these: read-out: Kb(M^-1) (converted). It is filed as binding. An excerpt:
isothermal titration calorimetry, two-site sequential model on human serum albumin (HSA)
(Isothermal titration calorimetry measures the heat released or taken up as one component is titrated into another.)

Assay [2] has as its target T1, human serum albumin (HSA). Briefly: UV absorption titration at […] nm, […]/dA vs […]/[S] plot. Type of assay: binding.

pKd: −log10 of the molar value.

T1 sequence (P02768 25-609): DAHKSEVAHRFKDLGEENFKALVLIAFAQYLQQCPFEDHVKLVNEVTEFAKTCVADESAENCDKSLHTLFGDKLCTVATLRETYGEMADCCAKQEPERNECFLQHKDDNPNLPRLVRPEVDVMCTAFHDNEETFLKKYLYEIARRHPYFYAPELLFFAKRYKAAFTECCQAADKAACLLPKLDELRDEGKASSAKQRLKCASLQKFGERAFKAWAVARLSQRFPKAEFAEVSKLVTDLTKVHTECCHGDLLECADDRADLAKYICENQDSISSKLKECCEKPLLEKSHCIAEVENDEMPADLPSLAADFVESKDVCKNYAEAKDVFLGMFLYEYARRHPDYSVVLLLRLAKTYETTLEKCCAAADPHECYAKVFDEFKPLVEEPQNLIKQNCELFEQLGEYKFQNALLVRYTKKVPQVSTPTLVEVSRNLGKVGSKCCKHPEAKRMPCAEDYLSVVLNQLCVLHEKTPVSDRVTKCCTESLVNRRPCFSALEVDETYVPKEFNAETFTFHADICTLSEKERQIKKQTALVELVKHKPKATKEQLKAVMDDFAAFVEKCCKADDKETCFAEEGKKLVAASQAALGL

As a reminder, the pKd is the negative decadic logarithm of the Kd, by convention in mol/L. Lower therefore signals a large Kd. With `Oc1ccc2ccccc2c1` [2N, naphthalen–2–ol], the Kd in assay [1] was 25.3 µM. Besides, the pKd in assay [2] was 4.17.

The record behind these values is publication PMC3206814, “Stereo-Selectivity of Human Serum Albumin to Enantiomeric and Isoelectronic Pollutants Dissected by Spectroscopy, Calorimetry and Bioinformatics” (PLoS ONE, 2011).
